Experimental findings from PubChem BioAssay AID1259407 (Chemical Carcinogenesis Research Information System (CCRIS), 2018) are described below.

The structures appear in SMILES notation. The source made the active and inactive calls. How the calls were made is not given here.

The subject of this series is CCRIS mutagenicity, Ames/micronucleus/aberration tests. Nature of the series: CCRIS mutagenicity studies.
Where [1] appears, read: Test System: AMES SALMONELLA TYPHIMURIUM, Strain/Indicator: TA100, Metabolic Activation: NONE, Method: PREINCUBATION
Where [2] appears, read: Test System: CHINESE HAMSTER V-79, Strain/Indicator: V-79/8-AZAGUANINE, Metabolic Activation: NONE, Method: STANDARD PLATE.

Take `O=C1c2cccc(O)c2C(=O)c2c(O)cc(CO)cc21`: the mutagenic call runs as follows: (Test System: AMES SALMONELLA TYPHIMURIUM, Strain/Indicator: TA97A, Metabolic Activation: NONE, Method: STANDARD PLATE) “active; positive”; (Test System: AMES SALMONELLA TYPHIMURIUM, Strain/Indicator: TA97A, Metabolic Activation: RAT, LIVER, S-9, AROCLOR 1254, Method: STANDARD PLATE) “active; positive”; (Test System: AMES SALMONELLA TYPHIMURIUM, Strain/Indicator: TA98, Metabolic Activation: NONE, Method: STANDARD PLATE) “active; positive”; (Test System: AMES SALMONELLA TYPHIMURIUM, Strain/Indicator: TA98, Metabolic Activation: RAT, LIVER, S-9, PCB, Method: PREINCUBATION) “inactive; negative”; (Test System: AMES SALMONELLA TYPHIMURIUM, Strain/Indicator: TA98, Metabolic Activation: RAT, LIVER, S-9, Method: PREINCUBATION) “active; positive”; under setting [1], “inactive; negative”. For the same molecule, the mutagenic call reads like this: (Test System: AMES SALMONELLA TYPHIMURIUM, Strain/Indicator: TA100, Metabolic Activation: NONE, Method: STANDARD PLATE) “inactive; negative”; (Test System: AMES SALMONELLA TYPHIMURIUM, Strain/Indicator: TA100, Metabolic Activation: RAT, LIVER, S-9, AROCLOR 1254, Method: STANDARD PLATE) “inactive; negative”; (Test System: AMES SALMONELLA TYPHIMURIUM, Strain/Indicator: TA100, Metabolic Activation: RAT, LIVER, S-9, PCB, Method: PREINCUBATION) “active; positive”; (Test System: AMES SALMONELLA TYPHIMURIUM, Strain/Indicator: TA102, Metabolic Activation: NONE, Method: STANDARD PLATE) “inactive; negative”; (Test System: AMES SALMONELLA TYPHIMURIUM, Strain/Indicator: TA102, Metabolic Activation: RAT, LIVER, S-9, AROCLOR 1254, Method: STANDARD PLATE) “active; positive”; (Test System: AMES SALMONELLA TYPHIMURIUM, Strain/Indicator: TA102, Metabolic Activation: RAT, LIVER, S-9, Method: PREINCUBATION) “active; positive”. For the same molecule, the mutagenic call runs as follows: (Test System: AMES SALMONELLA TYPHIMURIUM, Strain/Indicator: TA1535, Metabolic Activation: NONE, Method: STANDARD PLATE) “inactive; negative”; (Test System: AMES SALMONELLA TYPHIMURIUM, Strain/Indicator: TA1535, Metabolic Activation: RAT, LIVER, S-9, AROCLOR 1254, Method: STANDARD PLATE) “inactive; negative”; (Test System: AMES SALMONELLA TYPHIMURIUM, Strain/Indicator: TA1537, Metabolic Activation: NONE, Method: PREINCUBATION) “active; positive”; (Test System: AMES SALMONELLA TYPHIMURIUM, Strain/Indicator: TA1537, Metabolic Activation: NONE, Method: STANDARD PLATE) “active; positive”; (Test System: AMES SALMONELLA TYPHIMURIUM, Strain/Indicator: TA1537, Metabolic Activation: RAT, LIVER, S-9, Method: PREINCUBATION) “active; positive”; (Test System: AMES SALMONELLA TYPHIMURIUM, Strain/Indicator: TA1538, Metabolic Activation: NONE, Method: PREINCUBATION) “active; positive”. In addition, the mutagenic call is “active; positive” (Test System: AMES SALMONELLA TYPHIMURIUM, Strain/Indicator: TA1538, Metabolic Activation: NONE, Method: STANDARD PLATE); “active; positive” (Test System: AMES SALMONELLA TYPHIMURIUM, Strain/Indicator: TA1538, Metabolic Activation: RAT, LIVER, S-9, AROCLOR 1254, Method: STANDARD PLATE); “active; positive” (Test System: AMES SALMONELLA TYPHIMURIUM, Strain/Indicator: TA1538, Metabolic Activation: RAT, LIVER, S-9, Method: PREINCUBATION); “active; positive” (Test System: AMES SALMONELLA TYPHIMURIUM, Strain/Indicator: TA1978, Metabolic Activation: NONE, Method: PREINCUBATION); “inactive; negative” (Test System: AMES SALMONELLA TYPHIMURIUM, Strain/Indicator: TA1978, Metabolic Activation: RAT, LIVER, S-9, Method: PREINCUBATION); “inactive; negative” (Test System: CHINESE HAMSTER V-79, Strain/Indicator: V-79 (HGPRT)/6-THIOGUANINE, Metabolic Activation: NONE). For the same molecule, the mutagenic call (Test System: CHINESE HAMSTER V-79, Strain/Indicator: V-79 (HPRT)/6-THIOGUANINE, Metabolic Activation: NONE) is “inactive; negative”; the mutagenic call (Test System: CHINESE HAMSTER V-79, Strain/Indicator: V-79 (HPRT)/6-THIOGUANINE, Metabolic Activation: RAT, LIVER, S-9, AROCLOR 1254) is “inactive; negative”; the mutagenic call under setting [2] was “active; positive”; the mutagenic call (Test System: UDS RAT HEPATOCYTES, Strain/Indicator: THY INCORP, Metabolic Activation: NONE, Method: AUTORADIOGRAPHY) was “inactive; negative”; the mutagenic call (Test System: UDS RAT HEPATOCYTES, Strain/Indicator: THY INCORP, Metabolic Activation: NONE, Method: IN VIVO-IN VITRO) was “inactive; negative”; the mutagenic call (Test System: UDS RODENT HEPATOCYTES, Strain/Indicator: THY INCORP (NON-S-PHASE), Metabolic Activation: NONE, Method: AUTORADIOGRAPHY) is “active; positive”.
On to `OC1c2ccc3nc4c(ccc5ccccc54)cc3c2C2OC2C1O` (stereo unspecified), for which the mutagenic call by setting is: (Test System: AMES SALMONELLA TYPHIMURIUM, Strain/Indicator: TA98, Metabolic Activation: RAT, LIVER, AROCLOR 1254, NADPH GENERATING SYSTEM, Method: STANDARD PLATE) “inactive; negative”; (Test System: AMES SALMONELLA TYPHIMURIUM, Strain/Indicator: TA100, Metabolic Activation: RAT, LIVER, AROCLOR 1254, NADPH GENERATING SYSTEM, Method: STANDARD PLATE) “inactive; negative”; (Test System: CHINESE HAMSTER V-79, Strain/Indicator: V-79/8-AZAGUANINE, Method: STANDARD PLATE) “inactive; negative”.
For `O=C1NC(=O)C(O)(O)C(=O)N1`, the mutagenic call runs as follows: (End Point: IN VITRO CHROMOSOMAL ABERRATIONS, Test System: CHO CELLS, Metabolic Activation: NONE) “inactive; negative”; (End Point: IN VITRO CHROMOSOMAL ABERRATIONS, Test System: CHO CELLS, Metabolic Activation: RAT, LIVER, S-9, AROCLOR 1254) “inactive; negative”; (Test System: AMES SALMONELLA TYPHIMURIUM, Strain/Indicator: TA97, Metabolic Activation: HAMSTER, LIVER, S-9, AROCLOR 1254 (10 OR 30%), Method: PREINCUBATION) “inactive; negative”; (Test System: AMES SALMONELLA TYPHIMURIUM, Strain/Indicator: TA97, Metabolic Activation: NONE, Method: PREINCUBATION) “inactive; negative”; (Test System: AMES SALMONELLA TYPHIMURIUM, Strain/Indicator: TA97, Metabolic Activation: RAT, LIVER, S-9, AROCLOR 1254 (10 OR 30%), Method: PREINCUBATION) “inactive; negative”; (Test System: AMES SALMONELLA TYPHIMURIUM, Strain/Indicator: TA98, Metabolic Activation: HAMSTER, LIVER, S-9, AROCLOR 1254 (10 OR 30%), Method: PREINCUBATION) “inactive; negative”. In addition, the mutagenic call was “inactive; negative” (Test System: AMES SALMONELLA TYPHIMURIUM, Strain/Indicator: TA98, Metabolic Activation: NONE, Method: PREINCUBATION); “inactive; negative” (Test System: AMES SALMONELLA TYPHIMURIUM, Strain/Indicator: TA98, Metabolic Activation: RAT, LIVER, S-9, AROCLOR 1254 (10 OR 30%), Method: PREINCUBATION); “inactive; negative” (Test System: AMES SALMONELLA TYPHIMURIUM, Strain/Indicator: TA100, Metabolic Activation: HAMSTER, LIVER, S-9, AROCLOR 1254 (10 OR 30%), Method: PREINCUBATION); “inactive; negative” under setting [1]; “inactive; negative” (Test System: AMES SALMONELLA TYPHIMURIUM, Strain/Indicator: TA100, Metabolic Activation: RAT, LIVER, S-9, AROCLOR 1254 (10 OR 30%), Method: PREINCUBATION); “inactive; negative” (Test System: AMES SALMONELLA TYPHIMURIUM, Strain/Indicator: TA1535, Metabolic Activation: HAMSTER, LIVER, S-9, AROCLOR 1254 (10%), Method: PREINCUBATION). The mutagenic call (Test System: AMES SALMONELLA TYPHIMURIUM, Strain/Indicator: TA1535, Metabolic Activation: HAMSTER, LIVER, S-9, AROCLOR 1254 (30%), Method: PREINCUBATION) is “inactive; negative”; the mutagenic call (Test System: AMES SALMONELLA TYPHIMURIUM, Strain/Indicator: TA1535, Metabolic Activation: NONE, Method: PREINCUBATION) was “inactive; negative”; the mutagenic call (Test System: AMES SALMONELLA TYPHIMURIUM, Strain/Indicator: TA1535, Metabolic Activation: RAT, LIVER, S-9, AROCLOR 1254 (10 OR 30%), Method: PREINCUBATION) was “inactive; negative”.
With `CCCCCC(C)=O`, the mutagenic call (Test System: CHINESE HAMSTER V-79, Strain/Indicator: V-79 (HPRT)/6-THIOGUANINE, Metabolic Activation: NONE, Method: STANDARD PLATE) is “inactive; negative” and the mutagenic call (Test System: CHINESE HAMSTER V-79, Strain/Indicator: V-79 (HPRT)/6-THIOGUANINE, Metabolic Activation: RAT LIVER S-9, Method: STANDARD PLATE) was “inactive; negative”.
`O[C@@H]1[C@H]2O[C@H]2c2cc3c(ccc4ccccc43)cc2[C@H]1O`: the mutagenic call under setting [2] was “active; positive”.
